Laboratory results: patent publication US9101638B2, “Boronic acid derivatives and therapeutic uses thereof” (Rempex Pharmaceuticals, Inc., priority 2013, dated 2015)
Like-named read-outs stand apart in the source and are kept apart here.

Key:
ec302 (TEM-10) [1] = assay: Potentiation of tigemonam, strain ec302; type: cell-based
EC1010 (CMY-6) [2] = type: cell-based
SHV-12 = SHV-12 (Klebsiella pneumoniae, UniProt P0AD64, E235K/G234S/L31Q); assay: Inhibition of nitrocefin cleavage by purified SHV-12; type: biochemical; conditions: nitrocefin reporter substrate, purified enzyme; read-out: Ki (SHV-12, NCF)
Outline: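 Purified enzyme was preincubated with a range of inhibitor concentrations in reaction buffer for 10 min at room temperature. Nitrocefin was then added and its cleavage followed at 490 nm every 10 sec for 10 min.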

KP1009 (CTX-M-15) [3] = assay: Potentiation of aztreonam, strain KP1009; type: cell-based
ec308 (SHV-5) [4] = assay: Potentiation of tigemonam, strain ec308; type: cell-based; conditions: minimum BLI concentration inhibiting growth with 4 μg/mL tigemonam
PAM1032/KPC-2 = assay: Biapenem potentiation in PAM1032/KPC-2 (MexAB-OprM overexpressed); type: cell-based, Pseudomonas aeruginosa
Protocol: (§1) Efflux of BLIs from Pseudomonas aeruginosa by the MexAB-OprM efflux pump was also evaluated. […] Due to expression of KPC-2 both strains became resistant to biapenem. […] Potency of BLIs to potentiate biapenem in these strains was determined. […] The ratio of MPC64 values for each BLI in PAM1032/KPC-2 (efflux proficient) and PAM1154/KPC-2 (efflux deficient) was determined to generate the Efflux Index (EI).

CTX-M-14 = CTX-M-14 (Escherichia coli, UniProt Q9L5C7); assay: Inhibition of nitrocefin cleavage by purified CTX-M-14; type: biochemical; conditions: nitrocefin reporter substrate, purified enzyme; read-out: Ki (CTX-M-14, NCF)
Protocol: (§2) Purified enzymes were mixed with various concentrations of inhibitors in reaction buffer and incubated for 10 min at room temperature. Nitrocefin was added and substrate cleavage profiles were recorded at 490 nm every 10 sec for 10 min.

PAM1154/KPC-2 = assay: Biapenem potentiation in PAM1154/KPC-2 (MexAB-OprM lacking); type: cell-based, Pseudomonas aeruginosa
Protocol: as §1

KP1009 (CTX-M-15) [5] = assay: Potentiation of tigemonam, strain KP1009; conditions: minimum BLI concentration inhibiting growth with 4 μg/mL tigemonam
ec308 (SHV-5) [6] = assay: Potentiation of aztreonam, strain ec308; type: cell-based; conditions: minimum BLI concentration inhibiting growth with 4 μg/mL aztreonam
CathepsinG = molecular target: T1, CathepsinG (Homo sapiens, UniProt P08311); assay: Serine protease inhibition: cathepsin G; type: biochemical, mammalian; conditions: Table 8B
T1 construct: purchased EMD Millipore 219373
T1 sequence (P08311 21-244): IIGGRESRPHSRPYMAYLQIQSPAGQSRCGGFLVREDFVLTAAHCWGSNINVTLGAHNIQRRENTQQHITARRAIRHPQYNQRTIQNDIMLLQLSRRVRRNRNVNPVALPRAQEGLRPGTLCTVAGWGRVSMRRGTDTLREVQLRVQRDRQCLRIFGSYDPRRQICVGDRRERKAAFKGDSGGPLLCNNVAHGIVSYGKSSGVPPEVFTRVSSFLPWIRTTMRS
Protocol: (§3) The effect of selected BLIs on the enzymatic activity of some common mammalian serine proteases was evaluated.
(§4) 50 μl of the diluted enzyme was mixed with 50 μl of inhibitor at various concentrations and 50 μl of corresponding buffer (Table 7). Reaction mixtures were incubated for 10 min at 37° C. Subsequently, 50 μl of corresponding substrate (Table 7) was added and absorbance or fluorescence was monitored for 30 min on SpectraMax M2 plate reader (Molecular Devices). 4-(2-Aminoethyl)benzenesulfonyl fluoride hydrochloride (AEBSF) and leupeptin were used as positive controls. Rates of reaction were calculated and presented relative to “no treatment” control.

KP1005 (CTX-M-14) = assay: Potentiation of aztreonam, strain KP1005; type: cell-based
ec302 (TEM-10) [7] = assay: Potentiation of aztreonam, strain ec302; type: cell-based
OXA-48 = OXA-48 (Klebsiella pneumoniae, UniProt Q6XEC0); assay: Inhibition of nitrocefin cleavage by purified OXA-48; type: biochemical; conditions: nitrocefin reporter substrate, purified enzyme; read-out: Ki (OXA-48, NCF)
Protocol: as §2

EC1010 (CMY-6) [8] = assay: Potentiation of aztreonam, strain EC1010; type: cell-based
ECL1002 = assay: Potentiation of aztreonam, strain ECL1002; type: cell-based; conditions: minimum BLI concentration inhibiting growth with 4 μg/mL aztreonam
P99 = P99 (Enterobacter cloacae, UniProt P05364); assay: Inhibition of nitrocefin cleavage by purified P99; type: biochemical; conditions: nitrocefin reporter substrate, purified enzyme; read-out: Ki (P99, NCF)
Protocol: as §2

KP1004 (K-2) = assay: Potentiation of aztreonam, strain KP1004; type: cell-based; conditions: minimum BLI concentration inhibiting growth with 4 μg/mL aztreonam
CathepsinA = molecular target: T2, CathepsinA (Homo sapiens, UniProt P10619); assay: Serine protease inhibition: cathepsin A; type: biochemical, mammalian; conditions: Table 8B; read-out: IC50 CathepsinA
T2 construct: purchased R&D Systems 1049-SE
T2 sequence (P10619 29-480): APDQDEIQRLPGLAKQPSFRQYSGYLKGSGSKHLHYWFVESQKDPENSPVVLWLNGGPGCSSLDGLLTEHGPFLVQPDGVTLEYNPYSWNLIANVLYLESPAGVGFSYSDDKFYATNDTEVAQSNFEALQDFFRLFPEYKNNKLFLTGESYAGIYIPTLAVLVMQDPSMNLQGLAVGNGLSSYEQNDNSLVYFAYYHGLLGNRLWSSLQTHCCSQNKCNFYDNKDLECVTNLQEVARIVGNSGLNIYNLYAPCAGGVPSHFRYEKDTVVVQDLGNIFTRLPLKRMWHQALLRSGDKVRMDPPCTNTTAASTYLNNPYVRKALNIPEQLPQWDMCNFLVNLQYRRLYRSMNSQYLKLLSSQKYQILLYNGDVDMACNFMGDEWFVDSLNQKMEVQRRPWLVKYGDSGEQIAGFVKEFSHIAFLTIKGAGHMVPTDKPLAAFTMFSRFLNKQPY
Protocol: as §3, §4

CMY-2 = CMY-2 (Klebsiella pneumoniae, UniProt Q48434); assay: Inhibition of nitrocefin cleavage by purified CMY-2; type: biochemical; conditions: nitrocefin reporter substrate, purified enzyme; read-out: Ki (CMY-2, NCF)
Protocol: as §2

[9] = BLI potency to decrease biapenem MIC 64-fold, 32 to 0.5 μg/ml, efflux proficient strain

Chain of CTX-M-14 (Q9L5C7 entry or part of it): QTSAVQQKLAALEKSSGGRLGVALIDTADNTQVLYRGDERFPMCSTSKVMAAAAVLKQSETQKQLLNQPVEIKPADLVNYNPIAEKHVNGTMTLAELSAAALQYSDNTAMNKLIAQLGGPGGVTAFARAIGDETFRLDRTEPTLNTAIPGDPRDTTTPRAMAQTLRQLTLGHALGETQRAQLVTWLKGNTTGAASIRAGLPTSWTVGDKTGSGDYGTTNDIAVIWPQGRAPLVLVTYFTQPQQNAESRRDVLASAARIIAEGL
Chain of SHV-12 (P0AD64 22-286 L31Q/G234S/E235K): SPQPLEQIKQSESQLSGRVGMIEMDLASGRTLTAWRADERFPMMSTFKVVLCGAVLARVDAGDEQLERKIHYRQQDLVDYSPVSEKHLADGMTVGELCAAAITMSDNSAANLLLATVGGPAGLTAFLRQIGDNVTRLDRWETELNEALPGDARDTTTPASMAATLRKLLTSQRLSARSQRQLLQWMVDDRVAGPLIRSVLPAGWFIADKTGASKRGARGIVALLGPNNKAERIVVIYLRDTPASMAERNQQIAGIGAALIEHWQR
Chain of OXA-48 (Q6XEC0 23-265 limits assumed): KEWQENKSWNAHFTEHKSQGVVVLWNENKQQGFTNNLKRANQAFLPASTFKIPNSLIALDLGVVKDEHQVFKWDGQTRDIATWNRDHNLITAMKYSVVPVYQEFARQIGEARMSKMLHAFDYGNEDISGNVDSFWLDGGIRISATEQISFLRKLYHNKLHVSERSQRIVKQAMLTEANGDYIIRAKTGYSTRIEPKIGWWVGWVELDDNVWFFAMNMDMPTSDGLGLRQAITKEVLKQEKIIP
Chain of P99 (P05364 21-381): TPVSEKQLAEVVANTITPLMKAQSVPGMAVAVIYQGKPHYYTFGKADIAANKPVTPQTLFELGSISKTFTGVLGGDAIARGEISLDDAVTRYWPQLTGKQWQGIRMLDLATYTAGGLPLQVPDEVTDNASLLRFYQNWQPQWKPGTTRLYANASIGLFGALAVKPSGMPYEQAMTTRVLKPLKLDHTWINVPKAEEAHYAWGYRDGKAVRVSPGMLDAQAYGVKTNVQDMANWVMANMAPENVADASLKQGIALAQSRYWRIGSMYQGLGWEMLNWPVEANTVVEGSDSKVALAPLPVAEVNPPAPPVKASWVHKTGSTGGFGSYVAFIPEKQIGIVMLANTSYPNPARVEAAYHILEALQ
Chain of CMY-2 (Q48434 21-381, species assumed): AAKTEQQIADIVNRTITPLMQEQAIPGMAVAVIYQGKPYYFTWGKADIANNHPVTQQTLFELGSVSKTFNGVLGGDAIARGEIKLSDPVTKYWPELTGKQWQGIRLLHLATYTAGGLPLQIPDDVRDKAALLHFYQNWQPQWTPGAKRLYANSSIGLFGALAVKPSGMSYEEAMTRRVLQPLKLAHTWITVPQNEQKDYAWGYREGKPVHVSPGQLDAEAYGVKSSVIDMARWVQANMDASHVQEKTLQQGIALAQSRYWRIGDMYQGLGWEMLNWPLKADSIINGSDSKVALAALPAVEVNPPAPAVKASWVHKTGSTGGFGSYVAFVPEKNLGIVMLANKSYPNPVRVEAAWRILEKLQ

## O=C(N[C@H]1Cc2cccc(C(=O)O)c2OB1O)c1cccnc1 [Compound 12, (R)-2-hydroxy-3-(nicotinamido)-3,4-dihydro-2H-benzo[e][1,2]oxaborinine-8-carboxylic acid]
ec302 (TEM-10) [1]
  TIG MPC4 TEM-10 ec302: Y (key: X = MIC of less than 1 μg/mL; Y = MIC of 1 μg/mL to 10 μg/mL; Z = MIC of greater than 10 μg/mL)
EC1010 (CMY-6) [2]
  TIG MPC4 CMY-6 EC1010: Y (key: X = MIC of less than 1 μg/mL; Y = MIC of 1 μg/mL to 10 μg/mL; Z = MIC of greater than 10 μg/mL)
SHV-12
  Ki: < 1 nM
KP1009 (CTX-M-15) [3]
  AZT MPC4 CTX-M-15 KP1009: Y (key: X = MIC of less than 1 μg/mL; Y = MIC of 1 μg/mL to 10 μg/mL; Z = MIC of greater than 10 μg/mL)
ec308 (SHV-5) [4]
  TIG MPC4 SHV-5 ec308: Y (Y = MIC of 1 μg/mL to 10 μg/mL)
PAM1032/KPC-2; [9]
  PAM1032/KPC-2 Biapenem MPC64: Z (Z Greater than 40)
CTX-M-14
  Ki: < 1 nM
PAM1154/KPC-2
  PAM1154/KPC-2 Biapenem MPC64: X (key: X = Less than 10; Y = 10 to 40; Z Greater than 40)
KP1009 (CTX-M-15) [5]
  TIG MPC4 CTX-M-15 KP1009: Y (Y = MIC of 1 μg/mL to 10 μg/mL)
ec308 (SHV-5) [6]
  AZT MPC4 SHV-5 ec308: Y (Y = MIC of 1 μg/mL to 10 μg/mL)
CathepsinG
  IC50: < 15000 nM
KP1005 (CTX-M-14)
  AZT MPC4 CTX-M-14 KP1005: Y (key: X = MIC of less than 1 μg/mL; Y = MIC of 1 μg/mL to 10 μg/mL; Z = MIC of greater than 10 μg/mL)
ec302 (TEM-10) [7]
  AZT MPC4 TEM-10 ec302: X (key: X = MIC of less than 1 μg/mL; Y = MIC of 1 μg/mL to 10 μg/mL; Z = MIC of greater than 10 μg/mL)
OXA-48
  Ki: < 1 nM
EC1010 (CMY-6) [8]
  AZT MPC4 CMY-6 EC1010: Y (key: X = MIC of less than 1 μg/mL; Y = MIC of 1 μg/mL to 10 μg/mL; Z = MIC of greater than 10 μg/mL)
ECL1002
  AZT MPC4 ECL1002: X (X = MIC of less than 1 μg/mL)
P99
  Ki: < 1 nM
KP1004 (K-2)
  AZT MPC4 K-2 KP1004: Y (Y = MIC of 1 μg/mL to 10 μg/mL)
CathepsinA
  IC50: 15000 to 500000 nM

## NC(=O)CC(=O)N[C@H]1Cc2cccc(C(=O)O)c2OB1O [Compound 16, (R)-3-(3-amino-3-oxopropanamido)-2-hydroxy-3,4-dihydro-2H-benzo[e][1,2]oxaborinine-8-carboxylic acid]
ec302 (TEM-10) [1]
  TIG MPC4 TEM-10 ec302: Y (key: X = MIC of less than 1 μg/mL; Y = MIC of 1 μg/mL to 10 μg/mL; Z = MIC of greater than 10 μg/mL)
EC1010 (CMY-6) [2]
  TIG MPC4 CMY-6 EC1010: X (key: X = MIC of less than 1 μg/mL; Y = MIC of 1 μg/mL to 10 μg/mL; Z = MIC of greater than 10 μg/mL)
SHV-12
  Ki: < 1 nM
ec308 (SHV-5) [4]
  TIG MPC4 SHV-5 ec308: Y (Y = MIC of 1 μg/mL to 10 μg/mL)
PAM1032/KPC-2
  PAM1032/KPC-2 Biapenem MPC64: X (key: X = Less than 10; Y = 10 to 40; Z Greater than 40)
CTX-M-14
  Ki: 1 to 10 nM
PAM1154/KPC-2
  PAM1154/KPC-2 Biapenem MPC64: X (key: X = Less than 10; Y = 10 to 40; Z Greater than 40)
KP1009 (CTX-M-15) [5]
  TIG MPC4 CTX-M-15 KP1009: X (X = MIC of less than 1 μg/mL)
ec308 (SHV-5) [6]
  AZT MPC4 SHV-5 ec308: X (X = MIC of less than 1 μg/mL)
KP1005 (CTX-M-14)
  AZT MPC4 CTX-M-14 KP1005: X (key: X = MIC of less than 1 μg/mL; Y = MIC of 1 μg/mL to 10 μg/mL; Z = MIC of greater than 10 μg/mL)
ec302 (TEM-10) [7]
  AZT MPC4 TEM-10 ec302: X (key: X = MIC of less than 1 μg/mL; Y = MIC of 1 μg/mL to 10 μg/mL; Z = MIC of greater than 10 μg/mL)
OXA-48
  Ki: 1 to 10 nM
ECL1002
  AZT MPC4 ECL1002: X (X = MIC of less than 1 μg/mL)
P99
  Ki: 1 to 10 nM
KP1004 (K-2)
  AZT MPC4 K-2 KP1004: Y (Y = MIC of 1 μg/mL to 10 μg/mL)
CMY-2
  Ki: 1 to 10 nM

## NC(=O)C(=O)N[C@H]1Cc2cccc(C(=O)O)c2OB1O [Compound 17, (R)-3-(2-amino-2-oxoacetamido)-2-hydroxy-3,4-dihydro-2H-benzo[e][1,2]oxaborinine-8-carboxylic acid]
ec302 (TEM-10) [1]
  TIG MPC4 TEM-10 ec302: X (key: X = MIC of less than 1 μg/mL; Y = MIC of 1 μg/mL to 10 μg/mL; Z = MIC of greater than 10 μg/mL)
EC1010 (CMY-6) [2]
  TIG MPC4 CMY-6 EC1010: X (key: X = MIC of less than 1 μg/mL; Y = MIC of 1 μg/mL to 10 μg/mL; Z = MIC of greater than 10 μg/mL)
SHV-12
  Ki: 1 to 10 nM
KP1009 (CTX-M-15) [3]
  AZT MPC4 CTX-M-15 KP1009: Y (key: X = MIC of less than 1 μg/mL; Y = MIC of 1 μg/mL to 10 μg/mL; Z = MIC of greater than 10 μg/mL)
ec308 (SHV-5) [4]
  TIG MPC4 SHV-5 ec308: Y (Y = MIC of 1 μg/mL to 10 μg/mL)
PAM1032/KPC-2; [9]
  PAM1032/KPC-2 Biapenem MPC64: Z (Z Greater than 40)
CTX-M-14
  Ki: 1 to 10 nM
PAM1154/KPC-2
  PAM1154/KPC-2 Biapenem MPC64: X (key: X = Less than 10; Y = 10 to 40; Z Greater than 40)
KP1009 (CTX-M-15) [5]
  TIG MPC4 CTX-M-15 KP1009: Y (Y = MIC of 1 μg/mL to 10 μg/mL)
ec308 (SHV-5) [6]
  AZT MPC4 SHV-5 ec308: X (X = MIC of less than 1 μg/mL)
KP1005 (CTX-M-14)
  AZT MPC4 CTX-M-14 KP1005: Y (key: X = MIC of less than 1 μg/mL; Y = MIC of 1 μg/mL to 10 μg/mL; Z = MIC of greater than 10 μg/mL)
ec302 (TEM-10) [7]
  AZT MPC4 TEM-10 ec302: X (key: X = MIC of less than 1 μg/mL; Y = MIC of 1 μg/mL to 10 μg/mL; Z = MIC of greater than 10 μg/mL)
OXA-48
  Ki: 1 to 10 nM
EC1010 (CMY-6) [8]
  AZT MPC4 CMY-6 EC1010: Y (key: X = MIC of less than 1 μg/mL; Y = MIC of 1 μg/mL to 10 μg/mL; Z = MIC of greater than 10 μg/mL)
ECL1002
  AZT MPC4 ECL1002: Y (Y = MIC of 1 μg/mL to 10 μg/mL)
P99
  Ki: 1 to 10 nM
KP1004 (K-2)
  AZT MPC4 K-2 KP1004: Y (Y = MIC of 1 μg/mL to 10 μg/mL)
CMY-2
  Ki: 1 to 10 nM
